Assay results: ChEMBL document CHEMBL1131697, “Toxicity and osmoprotective activities of analogues of glycine betaine obtained by solid phase organic synthesis towards Sinorhizobium meliloti” (1999)

Experiments:
Format in all cases: functional
[1] = Evaluated for substrate specificity of betaine uptake in salt-stressed Sinorhizobium meliloti. compound to substrate ratio 10:1
Sinorhizobium meliloti [2] = assay: Maximal attenuance reached in the stationary phase was reported against Sinorhizobium meliloti 102F34 in Lactate aspartate(LAS) minimal medium (without addition of NaCl)
Sinorhizobium meliloti [3] = assay: Tested for effect on doubling time of growth of Sinorhizobium meliloti 102F34 in Lactate aspartate(LAS) minimal medium (with addition of NaCl)
Sinorhizobium meliloti [4] = assay: Tested for effect on doubling time of growth of Sinorhizobium meliloti 102F34 in Lactate aspartate(LAS) minimal medium (without addition of NaCl)
[5] = Evaluated for substrate specificity of betaine uptake in salt-stressed Sinorhizobium meliloti. compound to substrate ratio 100:1
[6] = Evaluated for substrate specificity of betaine uptake in salt-stressed Sinorhizobium meliloti. compound to substrate ratio 1:1; set-up: unit not given here
Sinorhizobium meliloti [7] = assay: Maximal attenuance reached in the stationary phase was reported against Sinorhizobium meliloti 102F34 in Lactate aspartate(LAS) minimal medium (with addition of NaCl)

Row | SMILES | Betaine uptake (substrate specificity) [1] | Dmax (Sinorhizobium meliloti [2]) | DT (Sinorhizobium meliloti [3]) [h] | DT (Sinorhizobium meliloti [4]) [h] | Substrate specificity of betaine uptake [5] | Ratio [6] | Dmax (Sinorhizobium meliloti [7])
1 | C[S+](C)CC(=O)O.[Cl-] | 90 | 0.5 | 32 | 35 | 98 | 52 | 0.5
2 | CC[N+](CC)(CC)CC(=O)O.[Cl-] | 4 | 1.8 | 18 | 7.9 | 27 | 0 | 0.9
3 | CCCC[N+](C)(C)CC(=O)O.[Cl-] | 10 | 1.9 | 20 | 6.4 | 23 | 1 | 0.9
4 | C[N+]1(CC(=O)O)CCCC1.[Cl-] | 61 | 0.6 | 11 | 45 | 95 | 20 | 2.1
5 | CC[N+](C)(CC)CC(=O)O.[Cl-] | 10 | 1.6 | 13 | 9 | 57 | 4 | 2
6 | C[N+]1(CC(=O)O)CCOCC1.[Cl-] | 7 | 1 | 13 | 28 | 43 | 1 | 1.9
7 | CC(C)[N+](C)(C)CC(=O)O.[Cl-] | 4 | 1.8 | 20 | 6.9 | 45 | 0 | 0.9
8 | CC[N+](C)(C)CC(=O)O.[Cl-] | 79 | 0.7 | 11 | 35 | 96 | 35 | 2
9 | C[N+](C)(C)CC(=O)O [BETAINE] | 94 | 2 | 7 | 5.5 | 99 | 80 | 2.1
